# According to article PMC6627744, “A Tiny Change Makes a Big Difference in the Anti-Parasitic Activities of an HDAC Inhibitor” (International Journal of Molecular Sciences, 2019):
# Where two headings read alike, the source gives them in different places.
# How the values were obtained:
# [1] = tested on: RH type I strain of T. gondii; parameters: method as in PMID 29414107; details: cited from earlier work
# [2] = tested on: Pru type II strain of T. gondii; assay: Anti-T. gondii activity in infected HFF monolayers, type II strain; type: cell-based; details: Toxoplasma gondii, 24 h, read-out: IC50, inhibition of T. gondii type II strain
# Protocol: (§1) Confluent Human Foreskin Fibroblast (HFF) monolayers were infected with YFP-type I Rh kindly provided by B. Striepen or Tomato-type II Pru kindly provided by Professor N. Blanchard (Toulouse), at 5 × 10^4 parasites per well. They were then centrifuged for 30 s at 250 g and incubated for 30 min in a water bath at 37 °C to allow invasion. The wells were washed three times with PBS to eliminate extracellular parasites, and the drugs were added at concentrations ranging from 0.01 to 3.0 μM. After incubation for 24 h at 37 °C in a humidified atmosphere containing 5% CO2, the cells were fixed in 2.5% methanol-free formaldehyde (Tebu-bio, Le Perray-en-Yvelines, France)/PBS for 30 min at room temperature. Nuclei were stained with Hoechst 33258 (2 µg/mL, Molecular Probes) for 20 min and washed three times with water. The number of infected cells, i.e., cells harboring a parasitophorous vacuole (see supplementary data S3 for an example), and the number of parasites per vacuole were determined using an Olympus ScanR microscope (×20 objective) and ScanR software. The parasitic index in % compared to the control was calculated as follows: [Parasitic index (PI) = ((number of parasite/100 cells in treated wells) × (% of infected macrophage in treated well)/(number of parasite/100 cells in untreated wells) × (% of infected macrophage in untreated wells)) × 100].
# [3] = tested on: Pru type II strain of T. gondii; parameters: method as in PMID 29414107; details: read-out: IC50, inhibition of T. gondii type II strain; cited from earlier work
# [4] = tested on: RH type I strain of T. gondii; assay: Anti-T. gondii activity in infected HFF monolayers, type I strain; type: cell-based, Toxoplasma gondii
# Protocol: as §1
# T. gondii = assay: Anti-T. gondii activity in infected HFF monolayers, strain not given; type: cell-based, Toxoplasma gondii
# Protocol: as §1
# recombinant HDAC1 enzyme = biological target: T1, recombinant HDAC1 enzyme (Homo sapiens, UniProt Q13547); assay: HDAC inhibition, recombinant HDAC1 (fluorometric HDAC assay kit); type: biochemical; details: Figure 1B
# T1 construct: purchased Active Motif
# Protocol: (§2) The HDACi effect against HeLa nuclear extracts and recombinant proteins were measured using a fluorometric HDAC assay kit (Active Motif, La Hulpe, Belgium) according to the manufacturer’s instructions. Briefly, 30 μL of HeLa nuclear extract (Active Motif, Belgium) or HDAC 1 recombinant protein (Active Motif, Belgium) were mixed with 5 μL of a 10× compound and 10 μL of assay buffer. A positive control, containing trichostatin A at a final concentration of 2 μM, was analyzed for each independent experiment. A fluorogenic substrate (10 μL) was added, and the reaction was allowed to proceed for 30 min at room temperature and then stopped by the addition of a developer containing trichostatin A. The fluorescence was monitored after 30 min at excitation and emission wavelengths of 360 and 460 nm, respectively.
# [5] = tested on: HeLa cell nuclear extract, which contains mainly HDACs 1, 2, 6, and 8; assay: HDAC inhibition, HeLa nuclear extract (fluorometric HDAC assay kit); type: biochemical, human; details: HeLa nuclear extracts; ratio of IC50 versus 363
# Protocol: as §2
# T1 sequence (Q13547 whole entry): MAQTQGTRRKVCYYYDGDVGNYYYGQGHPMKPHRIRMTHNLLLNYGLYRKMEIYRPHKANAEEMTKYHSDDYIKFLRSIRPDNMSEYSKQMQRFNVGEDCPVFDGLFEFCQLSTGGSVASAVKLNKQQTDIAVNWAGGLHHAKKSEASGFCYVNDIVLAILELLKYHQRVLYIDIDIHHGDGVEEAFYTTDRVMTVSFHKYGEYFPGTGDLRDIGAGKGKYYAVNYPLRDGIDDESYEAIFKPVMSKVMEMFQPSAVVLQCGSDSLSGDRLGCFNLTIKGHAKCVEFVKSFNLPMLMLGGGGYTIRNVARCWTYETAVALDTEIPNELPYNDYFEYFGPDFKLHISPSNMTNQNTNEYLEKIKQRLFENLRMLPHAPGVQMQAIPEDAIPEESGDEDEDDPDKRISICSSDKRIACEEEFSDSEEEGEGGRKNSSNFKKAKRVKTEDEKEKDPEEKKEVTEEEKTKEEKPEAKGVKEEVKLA
compound,measurement,setting,value
"COc1cccc(CC(=O)Nc2ccc(C(=O)NO)cc2)c1 [Compound 363, N-hydroxy-4-[2-(3-methoxyphenyl)acetamido]benzamide]",IC50,"[1]; type I strain, read-out: IC50, inhibition of T. gondii type I strain",350 nM
same,fold higher susceptibility of type I strains than type II strains,[1]; type I versus type II,6 fold
same,IC50,[2],853 nM
same,IC50,[3],2270 nM
same,IC50,"[4]; Toxoplasma gondii, type I (RH) strain, HFF, 24 h, read-out: IC50, inhibition of T. gondii type I strain",153 nM
same,fold higher susceptibility of type I strains than type II strains,"[4]; type I versus type II, this work",5.5 fold
"COc1ccccc1CNC(=O)c1ccc(C(=O)NO)cc1 [Compound D16, 1-N-hydroxy-4-N-[(2-methoxyphenyl)methyl]benzene-1,4-dicarboxamide]",anti-parasitic activity,"T. gondii; even at concentrations higher than 1000 nM, RH type I and Pru type II strains (Figure 1C)",No anti-parasitic activity
same,"potency on deacetylase activity of recombinant HDAC1, compared to 363",recombinant HDAC1 enzyme,lower potency
same,fold less efficient in HDACi activity compared to 363,[5],13 fold
"CCc1nc(N)nc(N)c1-c1ccc(Cl)cc1 [Pyrimethamine, reference compound]",IC50,"T. gondii; Toxoplasma gondii, positive control, strain not stated",453 nM
